Data: article PMC5342071, “A first generation inhibitor of human Greatwall kinase, enabled by structural and functional characterisation of a minimal kinase domain construct” (Oncotarget, 2016)

Target: T1, hGWL-KinDom (Homo sapiens, UniProt Q96GX5)
T1 construct: that encoded amino acids (aa) 1-194 + ‘RTFC’ + 740-879 of hGWL; GST (rhinovirus 3C-protease cleavable) (N, cleaved yes); made in house; host or cells: E. coli Rosetta2(DE3)
Assay: Thermal shift assay
Format: binding
Details: read-out: temperature midpoint shift (ΔTm)
Description: Assays were performed using a modified version of the protocol previously described in [41].
The protein crystallised in spacegroup P212121, with two molecules comprising the asymmetric unit. For one molecule (chain A), amino acids 30-72, 86-177 and 740-854 are readily discernible in electron density maps, whilst for the other (chain B) amino acids 30-72, 86-177 and 740-854 are readily discernible.
For thermal denaturation, samples containing protein at 1.5 µM and 5 x SYPRO Orange (diluted from a 5000 x stock supplied in DMSO; Sigma-Aldrich, Gillingham, UK) were prepared in sample buffer: 20 mM HEPES.NaOH pH 7.5, 300 mM NaCl, 0.5 mM TCEP. Denaturation curves were monitored in 96-well PCR plates using a Roche LightCycler 480 II, with 465 and 580 nm filters for excitation and emission wavelengths, respectively. The program was as follows: 1 min at 20°C, followed by a continuous increment of 0.03°C/s to a final temperature of 85°C. Temperature midpoints (Tm) for each folded to unfolded transition were determined by non-linear regression fitting of a modified Boltzmann model to normalized data in Prism 6.0 (version 6.0h, GraphPad Software, La Jolla, CA USA). […]
After stopping the above non-radioactive kinase assay with 1 volume of Kinase-Glo Max reagent the mixture was allowed to incubate for a further 15 min. […] As this assay measures ATP, activity or ATP turnover was measured as the -ΔRLU. […]

T1 sequence (Q96GX5 with tags, fused parts or gaps limits assumed): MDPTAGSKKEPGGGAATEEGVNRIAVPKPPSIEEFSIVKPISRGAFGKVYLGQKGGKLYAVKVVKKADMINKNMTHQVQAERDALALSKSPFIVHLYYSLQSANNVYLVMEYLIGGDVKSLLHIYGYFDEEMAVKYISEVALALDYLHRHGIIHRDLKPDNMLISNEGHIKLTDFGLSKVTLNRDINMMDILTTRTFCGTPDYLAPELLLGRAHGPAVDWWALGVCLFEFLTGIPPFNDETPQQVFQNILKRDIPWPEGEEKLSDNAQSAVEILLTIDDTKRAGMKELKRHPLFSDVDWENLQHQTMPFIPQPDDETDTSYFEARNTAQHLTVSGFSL

For `CN[C@@H]1C[C@H]2O[C@@](C)([C@@H]1OC)n1c3ccccc3c3c4c(c5c6ccccc6n2c5c31)C(=O)NC4` [STU, staurosporine], the ΔTm at 10 µM was 8.2 °C.
